From article PMC11012124, “Synthesis of Novel Triazine-Based Chalcones and 8,9-dihydro-7H-pyrimido[4,5-b][1,4]diazepines as Potential Leads in the Search of Anticancer, Antibacterial and Antifungal Agents” (International Journal of Molecular Sciences, 2024)
≈ marks a conversion by molar mass, not a printed value. Read-outs that look alike come from different tables or passages of the source.

Tests used:
COLO 205 = test: cells; settings: Homo sapiens, COLO 205, 48 h; for CC50: read-out: LC50
[1] = system: M. tuberculosis ATCC 27294; test: Antitubercular broth microdilution MIC; format: cell-based; settings: Mycobacterium tuberculosis; M. tuberculosis ATCC 27294 (H37Rv); read-out: Minimum inhibitory concentration (MIC)
786-0 = test: cells; settings: Homo sapiens, 786-0, 48 h; for CC50: read-out: LC50
SK-MEL-2 = test: cells; settings: Homo sapiens, SK-MEL-2, 48 h; for CC50: read-out: LC50
NCI-H522 = test: cells; settings: Homo sapiens, NCI-H522, 48 h; for CC50: read-out: LC50
SK-MEL-5 = test: cells; settings: Homo sapiens, SK-MEL-5, 48 h; for CC50: read-out: LC50
HOP-62 = test: cells; settings: Homo sapiens, HOP-62, 48 h; for CC50: read-out: LC50
KM12 = test: cells; settings: Homo sapiens, KM12, 48 h; for CC50: read-out: LC50
NCI-H322M = test: cells; settings: Homo sapiens, 48 h; for CC50: read-out: LC50
OVCAR-3 = test: cells; settings: Homo sapiens, OVCAR-3, 48 h; for CC50: read-out: LC50
SF-295 = test: cells; settings: Homo sapiens, SF-295, 48 h; for CC50: read-out: LC50
HT29 = test: cells; settings: Homo sapiens, HT-29, 48 h; for CC50: read-out: LC50
MDA-MB-468 = test: cells; settings: Homo sapiens, MDA-MB-468, 48 h; for CC50: read-out: LC50
U251 = test: cells; settings: Homo sapiens, U-251, 48 h; for GI50: U251, 48 h; for CC50: read-out: LC50
[2] = system: N. gonorrhoeae ATCC 49226; test: MIC on GC agar plates; format: cell-based, Neisseria gonorrhoeae
Outline: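 Agar dilution was used: GC agar with 1% IsoVitaleX containing increasing compound concentrations was inoculated with 1 × 10^4 CFU. The MIC was taken as the lowest concentration inhibiting growth, with growth confirmed by oxidase test, in duplicate across at least two independent experiments.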

T-47D = test: cells; settings: Homo sapiens, T47D, 48 h; for CC50: read-out: LC50
DU-145 = test: cells; settings: Homo sapiens, DU-145, 48 h; for CC50: read-out: LC50
SF-268 = test: cells; settings: Homo sapiens, SF-268, 48 h; for CC50: read-out: LC50
CAKI-1 = test: cells; settings: Homo sapiens, CAKI-1, 48 h; for CC50: read-out: LC50
NCI/ADR-RES = test: cells; settings: Homo sapiens, 48 h; for CC50: read-out: LC50
HCT-15 = test: cells; settings: Homo sapiens, HCT-15, 48 h; for CC50: read-out: LC50
UO-31 = test: cells; settings: Homo sapiens, UO-31, 48 h; for CC50: read-out: LC50
OVCAR-4 = test: cells; settings: Homo sapiens, OVCAR-4, 48 h, read-out: LC50
SNB-19 = test: cells; settings: Homo sapiens, SNB-19, 48 h
UACC-62 = test: cells; settings: Homo sapiens, UACC-62, 48 h
[3] = Neisseria gonorrhoeae, ATCC49226, read-out: MIC

CN(C)c1nc(NCCNS(=O)(=O)c2ccc(C3=Nc4c(N)nc(N)nc4NC(c4ccc(F)cc4)C3)cc2)nc(Nc2ccc(F)cc2)n1 (stereo not shown) [31f]
GI50 (COLO 205): 11.8 µM
CC50 (COLO 205): > 100 µM
MIC [1]: 1.2 µg/mL (≈ 1.71 µM)
GI50 (786-0): 4.77 µM
CC50 (786-0): > 100 µM
GI50 (SK-MEL-2): 8.17 µM
CC50 (SK-MEL-2): 29 µM
GI50 (NCI-H522): 34.8 µM
CC50 (NCI-H522): > 100 µM
GI50 (SK-MEL-5): 3.36 µM
CC50 (SK-MEL-5): 14.9 µM
GI50 (HOP-62): 96 µM
CC50 (HOP-62): > 100 µM
GI50 (KM12): 4.69 µM
CC50 (KM12): > 100 µM
GI50 (NCI-H322M): > 100 µM
CC50 (NCI-H322M): > 100 µM
GI50 (OVCAR-3): 8.09 µM
CC50 (OVCAR-3): > 100 µM
GI50 (SF-295): 6.71 µM
CC50 (SF-295): > 100 µM
GI50 (HT29): 3.88 µM
CC50 (HT29): > 100 µM
GI50 (MDA-MB-468): 2.15 µM
CC50 (MDA-MB-468): 6.24 µM
GI50 (U251): 6.35 µM
CC50 (U251): > 100 µM
MIC [2]: 0.25 µg/mL (≈ 0.356 µM)
MIC [2, 3]: 0.25 µg/mL (≈ 0.356 µM)
GI50 (T-47D): 4.86 µM
CC50 (T-47D): > 100 µM
GI50 (DU-145): 52 µM
CC50 (DU-145): > 100 µM
GI50 (SF-268): 4.83 µM
CC50 (SF-268): > 100 µM
GI50 (CAKI-1): 6.5 µM
CC50 (CAKI-1): > 100 µM
GI50 (NCI/ADR-RES): > 100 µM
CC50 (NCI/ADR-RES): > 100 µM
GI50 (HCT-15): > 100 µM
CC50 (HCT-15): > 100 µM
GI50 (UO-31): > 100 µM
CC50 (UO-31): > 100 µM
CC50 (OVCAR-4): > 100 µM

Cc1ccc(C2CC(c3ccc(S(=O)(=O)NCCNc4nc(Nc5ccc(F)cc5)nc(N(C)C)n4)cc3)=Nc3c(N)nc(N)nc3N2)cc1 (stereo not shown) [31b]
GI50 (COLO 205): 11.5 µM
CC50 (COLO 205): > 100 µM
MIC [1]: 0.6 µg/mL (≈ 0.86 µM)
GI50 (786-0): 7.06 µM
CC50 (786-0): > 100 µM
GI50 (SK-MEL-2): 11.2 µM
CC50 (SK-MEL-2): 77.7 µM
GI50 (NCI-H522): 21.3 µM
CC50 (NCI-H522): > 100 µM
GI50 (SK-MEL-5): 4.98 µM
CC50 (SK-MEL-5): 20.6 µM
GI50 (HOP-62): > 100 µM
CC50 (HOP-62): > 100 µM
GI50 (KM12): 4.56 µM
CC50 (KM12): > 100 µM
GI50 (NCI-H322M): > 100 µM
CC50 (NCI-H322M): > 100 µM
GI50 (OVCAR-3): 9.93 µM
CC50 (OVCAR-3): > 100 µM
GI50 (SF-295): 6.6 µM
CC50 (SF-295): > 100 µM
GI50 (HT29): 2.27 µM
CC50 (HT29): 4.65 µM
GI50 (MDA-MB-468): 2.72 µM
CC50 (MDA-MB-468): 8.52 µM
GI50 (U251): 7.08 µM
CC50 (U251): > 100 µM
MIC [2, 3]: 8 µg/mL (≈ 11.5 µM)
GI50 (T-47D): 8.75 µM
CC50 (T-47D): > 100 µM
GI50 (DU-145): > 100 µM
CC50 (DU-145): > 100 µM
GI50 (SNB-19): 13.1 µM
CC50 (SNB-19; read-out: LC50): > 100 µM
GI50 (SF-268): 7.53 µM
CC50 (SF-268): > 100 µM
GI50 (CAKI-1): 8.06 µM
CC50 (CAKI-1): > 100 µM
GI50 (NCI/ADR-RES): > 100 µM
CC50 (NCI/ADR-RES): > 100 µM
GI50 (HCT-15): 4.95 µM
CC50 (HCT-15): > 100 µM
GI50 (UACC-62): 20.9 µM
CC50 (UACC-62; read-out: LC50): > 100 µM
GI50 (UO-31): > 100 µM
CC50 (UO-31): > 100 µM
CC50 (OVCAR-4): > 100 µM
